Data published in publication PMC5361737, “Potent and Selective KDM5 Inhibitor Stops Cellular Demethylation of H3K4me3 at Transcription Start Sites and Proliferation of MM1S Myeloma Cells” (Cell Chemical Biology, 2017).
pIC50: −log10 of the molar value. Entries after “also recorded” stand apart in the source; their conditions may differ.

Experiments:
BZD (central) = assay: Cerep Express Panel, agonist radioligand; format: binding
5-HT5a (h) = 5-HT5a (h) (Homo sapiens, UniProt P47898); assay: Cerep Express Panel, agonist radioligand; format: binding; conditions: read-out: % Inhibition of reference (10 µM)
A1 (h) = A1 (h) (Homo sapiens, UniProt P30542); assay: Cerep Express Panel, antagonist radioligand; format: binding; conditions: read-out: % Inhibition of reference (10 µM)
A1 (h), sequence (P30542 whole entry): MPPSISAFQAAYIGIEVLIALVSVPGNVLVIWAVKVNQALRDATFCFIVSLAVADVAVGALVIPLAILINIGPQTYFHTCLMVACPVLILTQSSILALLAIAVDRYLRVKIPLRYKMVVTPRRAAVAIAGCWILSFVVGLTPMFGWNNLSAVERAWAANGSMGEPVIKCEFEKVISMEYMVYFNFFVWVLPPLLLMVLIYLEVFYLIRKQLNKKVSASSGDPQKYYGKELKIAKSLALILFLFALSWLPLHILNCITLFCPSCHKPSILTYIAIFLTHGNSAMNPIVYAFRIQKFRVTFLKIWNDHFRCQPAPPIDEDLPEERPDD

5-HT7 (h) = 5-HT7 (h) (Homo sapiens, UniProt P34969); assay: Cerep Express Panel, agonist radioligand; format: binding; conditions: read-out: % Inhibition of reference (10 µM)
5-HT7 (h), sequence (P34969 whole entry): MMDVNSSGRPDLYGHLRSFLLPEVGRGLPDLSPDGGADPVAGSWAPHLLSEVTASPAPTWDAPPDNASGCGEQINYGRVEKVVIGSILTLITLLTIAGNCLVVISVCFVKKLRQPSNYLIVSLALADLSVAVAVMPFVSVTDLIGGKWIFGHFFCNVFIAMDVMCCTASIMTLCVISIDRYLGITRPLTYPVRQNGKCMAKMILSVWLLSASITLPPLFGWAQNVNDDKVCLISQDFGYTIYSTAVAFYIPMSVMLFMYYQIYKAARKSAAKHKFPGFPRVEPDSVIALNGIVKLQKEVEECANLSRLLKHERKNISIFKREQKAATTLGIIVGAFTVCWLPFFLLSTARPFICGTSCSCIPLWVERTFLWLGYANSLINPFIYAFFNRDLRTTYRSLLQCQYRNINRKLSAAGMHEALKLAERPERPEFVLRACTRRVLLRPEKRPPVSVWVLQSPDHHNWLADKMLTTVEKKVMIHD

NO66 = NO66 (Homo sapiens, UniProt Q9H6W3); assay: 2-Oxoglutarate oxygenase assay panel, RapidFire MS assay; format: biochemical; conditions: read-out: pIC50 NO66 (converted)
sst (non-selective) = assay: Cerep Express Panel, agonist radioligand; format: binding; conditions: 10 µM
EGLN1 = EGLN1 (Homo sapiens, UniProt Q9GZT9); assay: 2-Oxoglutarate oxygenase assay panel, MALDI-TOF assay; format: biochemical; conditions: read-out: pIC50 EGLN1 (converted)
EGLN1, sequence (Q9GZT9 whole entry, species assumed): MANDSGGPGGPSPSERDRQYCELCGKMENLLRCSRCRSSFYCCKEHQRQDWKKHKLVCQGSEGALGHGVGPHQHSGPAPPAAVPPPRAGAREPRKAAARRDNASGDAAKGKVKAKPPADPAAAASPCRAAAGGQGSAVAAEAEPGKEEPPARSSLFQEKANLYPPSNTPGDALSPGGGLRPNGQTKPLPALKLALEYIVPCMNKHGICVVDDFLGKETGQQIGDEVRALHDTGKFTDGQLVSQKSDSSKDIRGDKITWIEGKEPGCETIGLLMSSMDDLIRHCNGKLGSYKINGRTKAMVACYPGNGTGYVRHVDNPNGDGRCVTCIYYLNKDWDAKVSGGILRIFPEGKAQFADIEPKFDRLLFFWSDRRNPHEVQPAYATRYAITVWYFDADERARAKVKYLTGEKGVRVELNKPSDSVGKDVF

alpha 1 (non-selective) = assay: Cerep Express Panel, antagonist radioligand; format: binding
D2S (h) = D2S (h) (Homo sapiens, UniProt P14416); assay: Cerep Express Panel, antagonist radioligand; format: binding; conditions: read-out: % Inhibition of reference (10 µM)
D2S (h), sequence (P14416 1-414 isoform P14416-2): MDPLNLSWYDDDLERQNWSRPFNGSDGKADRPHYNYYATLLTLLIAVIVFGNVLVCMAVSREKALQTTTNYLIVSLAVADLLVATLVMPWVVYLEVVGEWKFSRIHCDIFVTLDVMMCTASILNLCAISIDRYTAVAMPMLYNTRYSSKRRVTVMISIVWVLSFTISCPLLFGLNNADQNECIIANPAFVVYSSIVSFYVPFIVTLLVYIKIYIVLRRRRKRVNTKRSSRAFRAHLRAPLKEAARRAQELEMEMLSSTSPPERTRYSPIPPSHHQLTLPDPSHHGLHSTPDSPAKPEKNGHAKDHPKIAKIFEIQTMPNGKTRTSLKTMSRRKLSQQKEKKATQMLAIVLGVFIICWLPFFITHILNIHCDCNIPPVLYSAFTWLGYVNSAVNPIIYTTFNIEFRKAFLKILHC

Y1 (h) = Y1 (h) (Homo sapiens, UniProt P25929); assay: Cerep Express Panel, agonist radioligand; format: binding; conditions: read-out: % Inhibition of reference (10 µM)
Y1 (h), sequence (P25929 whole entry): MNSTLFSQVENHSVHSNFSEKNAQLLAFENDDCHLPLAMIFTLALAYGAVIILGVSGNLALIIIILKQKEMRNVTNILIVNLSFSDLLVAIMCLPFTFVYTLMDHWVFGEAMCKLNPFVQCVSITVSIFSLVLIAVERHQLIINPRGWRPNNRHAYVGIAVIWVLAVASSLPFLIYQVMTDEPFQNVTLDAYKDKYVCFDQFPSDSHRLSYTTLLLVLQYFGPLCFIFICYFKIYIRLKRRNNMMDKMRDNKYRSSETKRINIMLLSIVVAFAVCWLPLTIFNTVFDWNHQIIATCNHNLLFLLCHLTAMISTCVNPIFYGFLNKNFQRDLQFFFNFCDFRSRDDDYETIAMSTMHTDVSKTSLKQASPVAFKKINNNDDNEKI

GABA (non-selective) = assay: Cerep Express Panel, agonist radioligand; format: binding
[1] = system: KDM5A and KDM5C (other KDM5 family members); assay: IF assay, HeLa cells overexpressing the other KDM5 family members; format: cell-based, human; conditions: overexpression IF assay, 24 hr, read-out: inhibitory concentration, other KDM5 family members
Source text: The human cervical carcinoma cell line HeLa was obtained from the American Type Cultures Collection and maintained in Eagle's minimal essential media (Sigma-Aldrich) supplemented with 10% heat-inactivated fetal bovine serum (Life Technologies). Full-length cDNA for KDM5B (JARID1B, Q9UGL1, cDNA), KDM5C (JARID1C, P41229, IMAGE 5492114), KDM4B (JMJD2B, O94953, gift from ICR), KDM4C (JMJD2C, Q9H3R0, 8143862), KDM3A (JMJD1A, Q9Y4C1, 4823253), KDM2A (FBXL11, Q9Y2K7, 5534384), and KDM6B (JMJD3, O15054, cDNA) were amplified by PCR from either an MGC clone or a commercial cDNA source, or received as a gift from collaborators and cloned into pDONR-221 vector using Gateway BP reaction producing Gateway entry clones.
[…]. Mutations were introduced into full-length KDM Gateway entry clones using 15 cycles of the QuikChange II PCR protocol (Agilent Technologies). […]
In brief, cells were transiently transfected with either the FLAG-tagged WT or mutant demethylase described above, using Lipofectamine 2000 (Life Technologies). […] After the DAPI-stained nuclei were automatically identified, a minimum threshold for anti-FLAG intensity was set so that only cells highly expressing the demethylase were analyzed. […]

M1 (h) = M1 (h) (Homo sapiens, UniProt P11229); assay: Cerep Express Panel, antagonist radioligand; format: binding; conditions: read-out: % Inhibition of reference (10 µM)
M1 (h), sequence (P11229 whole entry): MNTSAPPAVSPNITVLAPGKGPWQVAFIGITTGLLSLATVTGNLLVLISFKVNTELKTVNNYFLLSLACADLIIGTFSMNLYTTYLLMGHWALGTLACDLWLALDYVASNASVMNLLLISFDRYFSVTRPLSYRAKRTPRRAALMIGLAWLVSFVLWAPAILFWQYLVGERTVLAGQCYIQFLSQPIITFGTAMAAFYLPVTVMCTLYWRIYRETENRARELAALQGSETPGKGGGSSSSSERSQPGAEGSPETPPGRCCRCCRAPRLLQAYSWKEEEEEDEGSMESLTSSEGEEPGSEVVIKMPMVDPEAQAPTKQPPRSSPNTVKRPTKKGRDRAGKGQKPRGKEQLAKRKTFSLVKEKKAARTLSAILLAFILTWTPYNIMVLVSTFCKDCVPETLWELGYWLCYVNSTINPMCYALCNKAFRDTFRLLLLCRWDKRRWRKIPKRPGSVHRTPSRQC

5-HT2A (h) = 5-HT2A (h) (Homo sapiens, UniProt P28223); assay: Cerep Express Panel, antagonist radioligand; format: binding; conditions: read-out: % Inhibition of reference (10 µM)
5-HT2A (h), sequence (P28223 whole entry): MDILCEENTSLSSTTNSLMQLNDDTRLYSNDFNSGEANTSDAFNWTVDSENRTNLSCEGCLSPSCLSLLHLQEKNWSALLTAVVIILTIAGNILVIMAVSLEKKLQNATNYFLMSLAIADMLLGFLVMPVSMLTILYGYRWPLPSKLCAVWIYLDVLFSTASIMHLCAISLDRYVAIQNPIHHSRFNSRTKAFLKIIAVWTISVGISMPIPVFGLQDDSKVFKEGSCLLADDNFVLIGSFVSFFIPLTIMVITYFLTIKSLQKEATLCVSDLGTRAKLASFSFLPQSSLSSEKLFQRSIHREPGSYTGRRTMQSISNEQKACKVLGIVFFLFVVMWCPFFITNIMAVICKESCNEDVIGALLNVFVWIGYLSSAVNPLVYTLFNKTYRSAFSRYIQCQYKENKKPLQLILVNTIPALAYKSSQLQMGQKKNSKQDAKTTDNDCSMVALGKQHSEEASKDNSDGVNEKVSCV

[2] = system: range of other multiple myeloma cell lines; assay: Cell viability, other multiple myeloma cell lines; format: cell-based; conditions: treated for 7 days
Source text: Figure S2 related to Figure 1 KDM5B Biochemical assay at different 2 -OG
Stem Cells (B) treated for 7 days. Data plotted represents the mean and standard deviation of four independent
2OG Concentration IC50 (mM) Ki […]

Y2 (h) = Y2 (h) (Homo sapiens, UniProt P49146); assay: Cerep Express Panel, agonist radioligand; format: binding; conditions: read-out: % Inhibition of reference (10 µM)
5-HT transporter (h) = target: T1, 5-HT transporter (h) (Homo sapiens, UniProt P31645); assay: Cerep Express Panel, antagonist radioligand; format: binding; conditions: read-out: % Inhibition of reference (10 µM)
T1 construct: CEREP
T1 sequence (P31645 whole entry): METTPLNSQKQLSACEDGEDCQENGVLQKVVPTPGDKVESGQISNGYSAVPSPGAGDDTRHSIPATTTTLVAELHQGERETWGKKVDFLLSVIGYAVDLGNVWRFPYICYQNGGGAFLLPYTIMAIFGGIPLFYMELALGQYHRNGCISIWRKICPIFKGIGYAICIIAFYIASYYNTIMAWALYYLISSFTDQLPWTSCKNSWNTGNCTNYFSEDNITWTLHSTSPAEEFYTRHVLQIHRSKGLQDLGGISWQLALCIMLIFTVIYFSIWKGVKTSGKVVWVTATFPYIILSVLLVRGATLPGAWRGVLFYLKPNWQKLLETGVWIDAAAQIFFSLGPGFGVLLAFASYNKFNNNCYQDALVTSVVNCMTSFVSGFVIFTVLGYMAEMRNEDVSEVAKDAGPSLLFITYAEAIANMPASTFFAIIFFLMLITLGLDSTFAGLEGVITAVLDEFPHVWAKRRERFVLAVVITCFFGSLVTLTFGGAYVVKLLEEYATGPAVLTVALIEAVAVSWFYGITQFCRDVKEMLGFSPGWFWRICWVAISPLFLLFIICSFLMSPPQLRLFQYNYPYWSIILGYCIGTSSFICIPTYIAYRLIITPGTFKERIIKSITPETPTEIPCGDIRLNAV

beta 1 (h) = beta 1 (h) (Homo sapiens, UniProt P08588); assay: Cerep Express Panel, agonist radioligand; format: binding; conditions: read-out: % Inhibition of reference (10 µM)
beta 1 (h), sequence (P08588 whole entry): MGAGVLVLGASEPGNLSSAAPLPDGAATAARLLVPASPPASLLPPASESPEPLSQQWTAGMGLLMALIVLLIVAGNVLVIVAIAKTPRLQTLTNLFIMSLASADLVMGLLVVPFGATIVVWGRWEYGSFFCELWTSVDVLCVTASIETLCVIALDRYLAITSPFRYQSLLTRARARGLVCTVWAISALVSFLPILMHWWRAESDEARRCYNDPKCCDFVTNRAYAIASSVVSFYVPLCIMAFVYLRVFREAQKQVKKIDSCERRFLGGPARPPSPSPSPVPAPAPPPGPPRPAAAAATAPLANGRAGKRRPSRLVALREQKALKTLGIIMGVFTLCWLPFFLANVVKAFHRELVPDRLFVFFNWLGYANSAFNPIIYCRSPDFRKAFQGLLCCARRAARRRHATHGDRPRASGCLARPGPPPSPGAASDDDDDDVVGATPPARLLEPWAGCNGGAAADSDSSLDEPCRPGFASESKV

Na+ channel (site 2) = assay: Cerep Express Panel, antagonist radioligand; format: binding; conditions: 10 µM
CCR1 (h) = target: T2, CCR1 (h) (Homo sapiens, UniProt P32246); assay: Cerep Express Panel, agonist radioligand; format: binding; conditions: read-out: % Inhibition of reference (10 µM)
T2 sequence (P32246 1-355): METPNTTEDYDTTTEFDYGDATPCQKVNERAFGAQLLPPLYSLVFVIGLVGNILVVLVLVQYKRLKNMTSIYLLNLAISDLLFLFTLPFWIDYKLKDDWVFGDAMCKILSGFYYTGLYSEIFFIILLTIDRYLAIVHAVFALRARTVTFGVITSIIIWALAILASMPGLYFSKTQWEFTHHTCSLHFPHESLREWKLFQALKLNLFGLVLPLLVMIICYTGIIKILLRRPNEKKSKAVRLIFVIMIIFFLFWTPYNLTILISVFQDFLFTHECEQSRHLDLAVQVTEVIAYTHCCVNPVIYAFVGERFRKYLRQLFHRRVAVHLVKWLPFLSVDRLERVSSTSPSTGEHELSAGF

M2 (h) = M2 (h) (Homo sapiens, UniProt P08172); assay: Cerep Express Panel, antagonist radioligand; format: binding; conditions: read-out: % Inhibition of reference (10 µM)
M2 (h), sequence (P08172 whole entry): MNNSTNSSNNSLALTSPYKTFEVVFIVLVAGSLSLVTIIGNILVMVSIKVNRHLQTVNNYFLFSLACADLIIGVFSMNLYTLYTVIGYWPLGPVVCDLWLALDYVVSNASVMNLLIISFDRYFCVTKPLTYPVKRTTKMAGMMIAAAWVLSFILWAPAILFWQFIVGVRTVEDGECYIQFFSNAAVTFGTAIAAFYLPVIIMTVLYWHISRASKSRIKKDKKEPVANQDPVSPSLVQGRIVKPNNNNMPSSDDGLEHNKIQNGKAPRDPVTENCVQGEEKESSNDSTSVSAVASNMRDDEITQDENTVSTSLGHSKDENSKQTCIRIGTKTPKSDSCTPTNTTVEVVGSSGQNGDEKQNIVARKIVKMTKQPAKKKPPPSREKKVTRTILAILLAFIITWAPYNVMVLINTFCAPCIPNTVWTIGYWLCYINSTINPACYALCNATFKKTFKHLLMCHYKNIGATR

KV channel = assay: Cerep Express Panel, antagonist radioligand; format: binding
mu (MOP) (h) = mu (MOP) (h) (Homo sapiens, UniProt P35372); assay: Cerep Express Panel, agonist radioligand; format: binding; conditions: read-out: % Inhibition of reference (10 µM)
mu (MOP) (h), sequence (P35372 whole entry): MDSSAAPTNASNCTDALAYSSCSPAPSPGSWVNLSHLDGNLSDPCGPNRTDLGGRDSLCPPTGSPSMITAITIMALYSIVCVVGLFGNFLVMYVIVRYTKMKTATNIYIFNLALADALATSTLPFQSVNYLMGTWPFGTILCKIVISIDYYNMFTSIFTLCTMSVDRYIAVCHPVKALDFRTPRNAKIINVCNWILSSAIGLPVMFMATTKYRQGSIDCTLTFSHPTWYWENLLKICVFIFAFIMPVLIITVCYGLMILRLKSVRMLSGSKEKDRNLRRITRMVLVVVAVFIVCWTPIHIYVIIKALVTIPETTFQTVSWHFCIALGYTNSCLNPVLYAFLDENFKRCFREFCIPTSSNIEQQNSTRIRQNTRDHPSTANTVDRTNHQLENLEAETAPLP

MT1 (ML1A) (h) = MT1 (ML1A) (h) (Homo sapiens, UniProt P48039); assay: Cerep Express Panel, agonist radioligand; format: binding; conditions: read-out: % Inhibition of reference (10 µM)

With CCN(CCN(C)C)C(=O)CNCc1cc(C(N)=O)ccn1 [KDOAM-25] the “% Inhibition of reference (10 µM)” value (BZD (central)) was -42%, the inhibition at 10 µM (5-HT5a (h)) was -24% and the inhibition at 10 µM (A1 (h)) was -3%. For the same compound, the inhibition at 10 µM (5-HT7 (h)) was -10%, the IC50 (NO66) was > 100 µM and the “% Inhibition of reference (10 µM)” value (sst (non-selective)) was 0%. For the same compound, the IC50 (EGLN1) was > 100 µM, the “% Inhibition of reference (10 µM)” value (alpha 1 (non-selective)) was -15% and the inhibition at 10 µM (D2S (h)) was 19%. The inhibition at 10 µM (Y1 (h)) was -7%, the “% Inhibition of reference (10 µM)” value (GABA (non-selective)) was -4% and the pIC50 [1] was < 4.00. For the same compound, the inhibition at 10 µM (M1 (h)) was -18%, the inhibition at 10 µM (5-HT2A (h)) was -6% and the “effect on viability of other multiple myeloma cells” value [2] was “does not decrease cell viability; also recorded: did not show the same decrease in viability”. The inhibition at 10 µM (Y2 (h)) was -1%, the inhibition at 10 µM (5-HT transporter (h)) was -2% and the inhibition at 10 µM (beta 1 (h)) was 5%. For the same compound, the “% Inhibition of reference (10 µM)” value (Na+ channel (site 2)) was 7%, the inhibition at 10 µM (CCR1 (h)) was -8% and the inhibition at 10 µM (M2 (h)) was -3%. For the same compound, the “% Inhibition of reference (10 µM)” value (KV channel) was -4%, the inhibition at 10 µM (mu (MOP) (h)) was -2% and the inhibition at 10 µM (MT1 (ML1A) (h)) was 5%.
